According to PMC7101356, “Cross-site and cross-platform variability of automated patch clamp assessments of drug effects on human cardiac currents in recombinant cells” (Scientific Reports, 2020):
Where two headings read alike, the source gives them in different places.

How the values were obtained:
peak hNav1.5 = target: T1, peak hNav1.5 (Homo sapiens, UniProt Q14524); assay: Automated patch clamp, peak hNav1.5 current block; format: cell-based
T1 construct: expressed in transfected cells; host or cells: HEK293 or CHO, depending on site

late hNav1.5 = target: T2, late hNav1.5 (Homo sapiens, UniProt Q14524); assay: Automated patch clamp, late hNav1.5 current block (ATX-II activated); format: cell-based
T2 construct: expressed in transfected cells; host or cells: HEK293 or CHO, depending on site

[1] = based on CiPA evaluations; cited from earlier work
hCav1.2 = hCav1.2 (Homo sapiens, UniProt Q13936); assay: Automated patch clamp, hCav1.2 current block
hERG = hERG (Homo sapiens, UniProt Q12809); assay: Automated patch clamp, hERG current block (consensus step-ramp protocol); conditions: human, hERG K+ current inhibition, Mean, 1.00E-08 mol/L
[2] = site_platform s06_p4, 1.00E-08 mol/L
[3] = site_platform s06_p4, 3.00E-07 mol/L
[4] = site_platform s07_p6, 1.00E-08 mol/L
[5] = site_platform s07_p6, 3.00E-07 mol/L
[6] = site_platform s13_p2, 1.00E-08 mol/L
[7] = site_platform s13_p2, 3.00E-07 mol/L
[8] = site_platform s14_p1, 1.00E-08 mol/L
[9] = site_platform s14_p1, 3.00E-07 mol/L

hCav1.2, sequence (Q13936 whole entry): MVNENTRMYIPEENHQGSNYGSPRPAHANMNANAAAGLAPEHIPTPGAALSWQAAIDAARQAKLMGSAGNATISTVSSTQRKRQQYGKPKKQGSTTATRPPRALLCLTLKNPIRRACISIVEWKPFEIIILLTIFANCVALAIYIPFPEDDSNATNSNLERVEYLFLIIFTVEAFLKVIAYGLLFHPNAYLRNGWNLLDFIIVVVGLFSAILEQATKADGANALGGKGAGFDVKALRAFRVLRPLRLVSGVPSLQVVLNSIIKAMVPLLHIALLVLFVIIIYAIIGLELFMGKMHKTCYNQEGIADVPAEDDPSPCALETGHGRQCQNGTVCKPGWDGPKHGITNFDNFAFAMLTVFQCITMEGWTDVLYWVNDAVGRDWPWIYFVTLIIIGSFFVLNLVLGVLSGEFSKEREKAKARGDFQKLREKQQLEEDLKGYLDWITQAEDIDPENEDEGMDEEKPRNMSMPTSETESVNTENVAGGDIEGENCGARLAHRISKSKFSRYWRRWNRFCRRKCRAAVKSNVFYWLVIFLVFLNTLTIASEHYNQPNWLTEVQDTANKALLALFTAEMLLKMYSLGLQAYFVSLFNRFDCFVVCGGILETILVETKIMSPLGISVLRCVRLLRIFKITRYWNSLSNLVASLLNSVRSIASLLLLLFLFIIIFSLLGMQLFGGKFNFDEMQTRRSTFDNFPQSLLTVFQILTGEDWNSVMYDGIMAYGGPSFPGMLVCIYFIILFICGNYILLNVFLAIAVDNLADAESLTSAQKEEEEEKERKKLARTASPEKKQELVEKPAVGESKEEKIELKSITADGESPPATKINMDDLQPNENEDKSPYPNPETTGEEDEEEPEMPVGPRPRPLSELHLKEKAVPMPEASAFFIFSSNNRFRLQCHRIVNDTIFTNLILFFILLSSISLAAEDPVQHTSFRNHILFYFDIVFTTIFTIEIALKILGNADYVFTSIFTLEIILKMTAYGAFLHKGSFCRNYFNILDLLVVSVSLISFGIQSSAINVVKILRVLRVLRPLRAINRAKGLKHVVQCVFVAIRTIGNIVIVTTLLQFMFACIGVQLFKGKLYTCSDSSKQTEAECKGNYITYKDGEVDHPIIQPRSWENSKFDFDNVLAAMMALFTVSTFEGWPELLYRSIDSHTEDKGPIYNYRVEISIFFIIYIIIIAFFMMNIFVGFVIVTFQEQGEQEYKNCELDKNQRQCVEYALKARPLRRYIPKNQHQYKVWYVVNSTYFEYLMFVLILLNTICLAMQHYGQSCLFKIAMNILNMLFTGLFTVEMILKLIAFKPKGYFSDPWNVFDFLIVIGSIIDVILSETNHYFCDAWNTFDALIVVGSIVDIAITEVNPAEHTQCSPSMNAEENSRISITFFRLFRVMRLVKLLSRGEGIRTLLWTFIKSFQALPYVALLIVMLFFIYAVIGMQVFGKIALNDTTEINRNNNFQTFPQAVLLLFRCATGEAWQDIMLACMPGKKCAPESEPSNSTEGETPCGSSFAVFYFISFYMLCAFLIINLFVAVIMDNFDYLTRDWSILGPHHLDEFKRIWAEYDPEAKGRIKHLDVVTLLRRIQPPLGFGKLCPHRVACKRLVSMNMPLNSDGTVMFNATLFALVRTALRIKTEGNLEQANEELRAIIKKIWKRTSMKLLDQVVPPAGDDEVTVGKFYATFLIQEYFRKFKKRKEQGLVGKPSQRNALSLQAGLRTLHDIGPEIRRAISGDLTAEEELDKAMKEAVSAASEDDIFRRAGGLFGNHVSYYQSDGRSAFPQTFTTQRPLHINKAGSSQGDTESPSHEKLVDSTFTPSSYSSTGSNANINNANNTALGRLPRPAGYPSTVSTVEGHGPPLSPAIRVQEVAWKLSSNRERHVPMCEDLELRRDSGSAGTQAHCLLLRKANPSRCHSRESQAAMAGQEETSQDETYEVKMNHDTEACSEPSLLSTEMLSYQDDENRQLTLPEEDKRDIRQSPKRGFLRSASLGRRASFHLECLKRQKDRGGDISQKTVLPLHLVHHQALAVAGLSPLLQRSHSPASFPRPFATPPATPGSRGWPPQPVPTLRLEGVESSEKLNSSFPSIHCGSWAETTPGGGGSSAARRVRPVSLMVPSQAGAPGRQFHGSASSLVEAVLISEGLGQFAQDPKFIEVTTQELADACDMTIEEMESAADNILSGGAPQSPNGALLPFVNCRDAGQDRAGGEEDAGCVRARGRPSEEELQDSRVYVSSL
hCav1.2, sequence (Q08289 whole entry partner): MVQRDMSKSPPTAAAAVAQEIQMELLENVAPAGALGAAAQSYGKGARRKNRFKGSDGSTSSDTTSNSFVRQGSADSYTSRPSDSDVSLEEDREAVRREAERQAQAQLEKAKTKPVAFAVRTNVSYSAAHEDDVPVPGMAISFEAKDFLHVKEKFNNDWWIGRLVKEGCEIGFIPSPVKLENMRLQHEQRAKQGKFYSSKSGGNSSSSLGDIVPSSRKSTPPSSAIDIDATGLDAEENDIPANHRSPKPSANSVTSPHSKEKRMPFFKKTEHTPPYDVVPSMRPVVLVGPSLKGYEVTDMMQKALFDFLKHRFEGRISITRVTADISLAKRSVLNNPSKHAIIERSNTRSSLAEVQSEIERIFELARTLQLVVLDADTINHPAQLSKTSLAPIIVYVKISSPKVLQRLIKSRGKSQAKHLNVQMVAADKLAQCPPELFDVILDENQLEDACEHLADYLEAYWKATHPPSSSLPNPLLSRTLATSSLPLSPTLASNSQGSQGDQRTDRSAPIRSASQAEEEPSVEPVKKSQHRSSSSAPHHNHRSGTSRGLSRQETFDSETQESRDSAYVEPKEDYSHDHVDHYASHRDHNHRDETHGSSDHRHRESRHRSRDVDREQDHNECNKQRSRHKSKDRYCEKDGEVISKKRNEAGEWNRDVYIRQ
hCav1.2, sequence (P54289 25-956 partner limits assumed): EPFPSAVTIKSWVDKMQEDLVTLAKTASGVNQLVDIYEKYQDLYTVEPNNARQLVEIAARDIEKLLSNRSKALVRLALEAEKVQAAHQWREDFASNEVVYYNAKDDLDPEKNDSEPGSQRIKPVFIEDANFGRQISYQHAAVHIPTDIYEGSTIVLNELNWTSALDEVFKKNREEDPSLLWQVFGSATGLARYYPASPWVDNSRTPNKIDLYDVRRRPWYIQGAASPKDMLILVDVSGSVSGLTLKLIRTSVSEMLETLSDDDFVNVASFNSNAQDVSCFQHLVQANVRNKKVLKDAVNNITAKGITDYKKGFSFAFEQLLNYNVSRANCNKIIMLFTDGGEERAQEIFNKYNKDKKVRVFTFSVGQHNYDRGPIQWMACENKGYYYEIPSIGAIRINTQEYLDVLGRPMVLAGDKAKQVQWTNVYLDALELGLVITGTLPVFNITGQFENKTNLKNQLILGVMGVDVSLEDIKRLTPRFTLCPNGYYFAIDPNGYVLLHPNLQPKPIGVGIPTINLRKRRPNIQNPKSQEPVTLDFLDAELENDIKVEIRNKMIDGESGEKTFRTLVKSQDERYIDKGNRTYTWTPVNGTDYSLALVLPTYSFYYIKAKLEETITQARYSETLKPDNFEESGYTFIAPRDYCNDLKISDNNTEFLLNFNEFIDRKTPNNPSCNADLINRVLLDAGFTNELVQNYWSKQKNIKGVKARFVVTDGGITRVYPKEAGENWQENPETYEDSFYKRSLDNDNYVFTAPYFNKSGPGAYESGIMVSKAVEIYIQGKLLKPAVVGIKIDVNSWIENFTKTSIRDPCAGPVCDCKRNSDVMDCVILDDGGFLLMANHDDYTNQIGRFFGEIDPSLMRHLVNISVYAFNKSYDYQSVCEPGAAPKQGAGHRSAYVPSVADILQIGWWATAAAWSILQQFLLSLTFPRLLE
hCav1.2, sequence (P54289 957-1103 partner limits assumed): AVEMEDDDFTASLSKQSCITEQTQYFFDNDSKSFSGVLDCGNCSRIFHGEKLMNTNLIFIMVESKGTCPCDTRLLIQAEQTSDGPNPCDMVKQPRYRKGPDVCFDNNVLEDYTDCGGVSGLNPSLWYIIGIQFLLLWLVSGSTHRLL
hERG, sequence (Q12809 whole entry): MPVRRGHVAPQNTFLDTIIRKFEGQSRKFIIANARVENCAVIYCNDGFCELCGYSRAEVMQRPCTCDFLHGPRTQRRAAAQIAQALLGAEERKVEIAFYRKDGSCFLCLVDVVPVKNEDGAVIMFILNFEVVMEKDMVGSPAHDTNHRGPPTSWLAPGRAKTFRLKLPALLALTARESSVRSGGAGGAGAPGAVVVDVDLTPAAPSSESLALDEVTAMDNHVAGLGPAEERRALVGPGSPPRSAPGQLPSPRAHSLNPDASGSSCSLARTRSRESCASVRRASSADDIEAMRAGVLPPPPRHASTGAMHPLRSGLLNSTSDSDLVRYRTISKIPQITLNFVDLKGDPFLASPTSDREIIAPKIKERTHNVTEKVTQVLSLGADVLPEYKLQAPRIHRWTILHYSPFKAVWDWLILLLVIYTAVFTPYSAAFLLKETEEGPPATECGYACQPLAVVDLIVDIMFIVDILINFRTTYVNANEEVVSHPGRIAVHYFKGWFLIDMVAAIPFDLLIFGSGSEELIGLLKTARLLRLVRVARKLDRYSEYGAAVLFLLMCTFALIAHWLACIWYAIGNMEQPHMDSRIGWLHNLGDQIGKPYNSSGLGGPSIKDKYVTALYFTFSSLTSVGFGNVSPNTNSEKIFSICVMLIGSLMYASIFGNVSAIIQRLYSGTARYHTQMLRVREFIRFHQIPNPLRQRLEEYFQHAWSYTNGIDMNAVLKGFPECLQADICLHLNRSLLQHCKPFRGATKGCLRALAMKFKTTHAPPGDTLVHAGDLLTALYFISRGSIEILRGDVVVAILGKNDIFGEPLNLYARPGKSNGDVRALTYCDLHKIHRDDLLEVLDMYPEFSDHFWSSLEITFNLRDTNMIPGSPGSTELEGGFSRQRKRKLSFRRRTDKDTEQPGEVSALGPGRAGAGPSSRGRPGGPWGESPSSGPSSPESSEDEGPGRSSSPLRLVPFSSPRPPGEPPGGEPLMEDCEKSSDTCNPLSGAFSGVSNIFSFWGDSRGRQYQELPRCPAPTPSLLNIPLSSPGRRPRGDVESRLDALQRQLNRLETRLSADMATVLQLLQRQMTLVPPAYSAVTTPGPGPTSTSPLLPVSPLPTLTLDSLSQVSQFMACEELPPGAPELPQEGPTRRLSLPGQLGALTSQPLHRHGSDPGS

Compound: CC(C)COCC(CN(Cc1ccccc1)c1ccccc1)N1CCCC1 (stereo not drawn) [bep, bepridil]
- IC50 (peak hNav1.5): 2450 nM
- log IC50, peak hNav1.5 Na+ current inhibition (peak hNav1.5; site_platform s01_p1): no inh.
- Peak hNav1.5 Na+ current inhibition, Mean (peak hNav1.5; site_platform s01_p1, 1.00E-08 mol/L): 27.2%
- Peak hNav1.5 Na+ current inhibition, Mean (peak hNav1.5; site_platform s01_p1, 3.00E-07 mol/L): 49.4%
- log IC50, peak hNav1.5 Na+ current inhibition (peak hNav1.5; site_platform s02_p2): no inh.
- Peak hNav1.5 Na+ current inhibition, Mean (peak hNav1.5; site_platform s02_p2, 1.00E-08 mol/L): 0.5%
- Peak hNav1.5 Na+ current inhibition, Mean (peak hNav1.5; site_platform s02_p2, 3.00E-07 mol/L): 5.1%
- log IC50, peak hNav1.5 Na+ current inhibition (peak hNav1.5; site_platform s04_p3): no inh.
- Peak hNav1.5 Na+ current inhibition, Mean (peak hNav1.5; site_platform s04_p3, 1.00E-08 mol/L): 7.9%
- Peak hNav1.5 Na+ current inhibition, Mean (peak hNav1.5; site_platform s04_p3, 3.00E-07 mol/L): 13.7%
- log IC50, peak hNav1.5 Na+ current inhibition (peak hNav1.5; site_platform s06_p4): no inh.
- Peak hNav1.5 Na+ current inhibition, Mean (peak hNav1.5; [2]): -6.3%
- Peak hNav1.5 Na+ current inhibition, Mean (peak hNav1.5; [3]): 0.9%
- log IC50, peak hNav1.5 Na+ current inhibition (peak hNav1.5; site_platform s07_p6): no inh.
- Peak hNav1.5 Na+ current inhibition, Mean (peak hNav1.5; [4]): -3.3%
- Peak hNav1.5 Na+ current inhibition, Mean (peak hNav1.5; [5]): -0.6%
- nH, Hill slope, peak hNav1.5 inhibition (peak hNav1.5; site_platform s10_p3): 0.57
- Peak hNav1.5 Na+ current inhibition, Mean (peak hNav1.5; site_platform s10_p3, 1.00E-08 mol/L): 3.5%
- Peak hNav1.5 Na+ current inhibition, Mean (peak hNav1.5; site_platform s10_p3, 3.00E-07 mol/L): 22.0%
- IC50 (peak hNav1.5; site_platform s10_p3, read-out: log IC50, peak hNav1.5 inhibition (converted)): 2690 nM
- log IC50, peak hNav1.5 inhibition (peak hNav1.5; site_platform s11_p1): no inh.
- Peak hNav1.5 Na+ current inhibition, Mean (peak hNav1.5; site_platform s11_p1, 1.00E-08 mol/L): 4.3%
- Peak hNav1.5 Na+ current inhibition, Mean (peak hNav1.5; site_platform s11_p1, 3.00E-07 mol/L): 10.4%
- log IC50, peak hNav1.5 inhibition (peak hNav1.5; site_platform s12_p2): no inh.
- Peak hNav1.5 Na+ current inhibition, Mean (peak hNav1.5; site_platform s12_p2, 1.00E-08 mol/L): 0.0%
- Peak hNav1.5 Na+ current inhibition, Mean (peak hNav1.5; site_platform s12_p2, 3.00E-07 mol/L): 0.0%
- log IC50, peak hNav1.5 inhibition (peak hNav1.5; site_platform s13_p2): no inh.
- Peak hNav1.5 Na+ current inhibition, Mean (peak hNav1.5; [6]): 3.2%
- Peak hNav1.5 Na+ current inhibition, Mean (peak hNav1.5; [7]): 6.7%
- nH, Hill slope, peak hNav1.5 inhibition (peak hNav1.5; site_platform s14_p1): 0.78
- Peak hNav1.5 Na+ current inhibition, Mean (peak hNav1.5; [8]): 6.0%
- Peak hNav1.5 Na+ current inhibition, Mean (peak hNav1.5; [9]): 17.8%
- nH, Hill slope, peak hNav1.5 inhibition (peak hNav1.5; site_platform s15_p1): 0.68
- Peak hNav1.5 Na+ current inhibition, Mean (peak hNav1.5; site_platform s15_p1, 1.00E-08 mol/L): 13.5%
- Peak hNav1.5 Na+ current inhibition, Mean (peak hNav1.5; site_platform s15_p1, 3.00E-07 mol/L): 51.4%
- IC50 (peak hNav1.5; site_platform s15_p1, read-out: log IC50, peak hNav1.5 inhibition (converted)): 324 nM
- nH, Hill slope, peak hNav1.5 inhibition (peak hNav1.5; site_platform s16_p3): 0.36
- Peak hNav1.5 Na+ current inhibition, Mean (peak hNav1.5; site_platform s16_p3, 1.00E-08 mol/L): 8.1%
- Peak hNav1.5 Na+ current inhibition, Mean (peak hNav1.5; site_platform s16_p3, 3.00E-07 mol/L): 26.6%
- IC50 (peak hNav1.5; site_platform s16_p3, read-out: log IC50, peak hNav1.5 inhibition (converted)): 4470 nM
- nH, Hill slope, peak hNav1.5 inhibition (peak hNav1.5; site_platform s17_p1): 1.09
- Peak hNav1.5 Na+ current inhibition, Mean (peak hNav1.5; site_platform s17_p1, 1.00E-08 mol/L): 2.7%
- Peak hNav1.5 Na+ current inhibition, Mean (peak hNav1.5; site_platform s17_p1, 3.00E-07 mol/L): 30.0%
- IC50 (peak hNav1.5; site_platform s17_p1, read-out: log IC50, peak hNav1.5 inhibition (converted)): 676 nM
- log IC50, peak hNav1.5 inhibition (peak hNav1.5; site_platform s18_p1): no inh.
- Peak hNav1.5 Na+ current inhibition, Mean (peak hNav1.5; site_platform s18_p1, 1.00E-08 mol/L): 54.7%
- Peak hNav1.5 Na+ current inhibition, Mean (peak hNav1.5; site_platform s18_p1, 3.00E-07 mol/L): 68.5%
- nH, Hill slope, peak hNav1.5 inhibition (peak hNav1.5; site_platform s19_p3): 0.50
- Peak hNav1.5 Na+ current inhibition, Mean (peak hNav1.5; site_platform s19_p3, 1.00E-08 mol/L): 2.2%
- Peak hNav1.5 Na+ current inhibition, Mean (peak hNav1.5; site_platform s19_p3, 3.00E-07 mol/L): 17.3%
- IC50 (peak hNav1.5; site_platform s19_p3, read-out: log IC50, peak hNav1.5 inhibition (converted)): 6920 nM
- nH, Hill slope, late hNav1.5 inhibition (late hNav1.5; site_platform s06_p4): 1.86
- Late hNav1.5 Na+ current inhibition, Mean (late hNav1.5; [2]): -0.5%
- Late hNav1.5 Na+ current inhibition, Mean (late hNav1.5; [3]): 43.7%
- IC50 (late hNav1.5; site_platform s06_p4, read-out: log IC50, late hNav1.5 inhibition (converted)): 363 nM
- log IC50, late hNav1.5 inhibition (late hNav1.5; site_platform s07_p6): no inh.
- Late hNav1.5 Na+ current inhibition, Mean (late hNav1.5; [4]): 5.5%
- Late hNav1.5 Na+ current inhibition, Mean (late hNav1.5; [5]): 12.3%
- log IC50, late hNav1.5 inhibition (late hNav1.5; site_platform s13_p2): no inh.
- Late hNav1.5 Na+ current inhibition, Mean (late hNav1.5; [6]): 24.3%
- Late hNav1.5 Na+ current inhibition, Mean (late hNav1.5; [7]): 29.9%
- log IC50, late hNav1.5 inhibition (late hNav1.5; site_platform s14_p1): no inh.
- Late hNav1.5 Na+ current inhibition, Mean (late hNav1.5; [8]): 54.2%
- Late hNav1.5 Na+ current inhibition, Mean (late hNav1.5; [9]): 10.2%
- TdP Risk Category [1]: High
- Peak hCav1.2 Ca2+ current inhibition, Mean (hCav1.2; site s01_p1, 1.00E-08 mol/L): 5.6%
- Peak hCav1.2 Ca2+ current inhibition, Mean (hCav1.2; site s01_p1, 3.00E-07 mol/L): 16.7%
- nH, Hill slope (hCav1.2; site s02_p2, corrected for rundown): 0.64
- Peak hCav1.2 Ca2+ current inhibition, Mean (hCav1.2; site s02_p2, corrected for rundown, 1.00E-08 mol/L): 4.4%
- Peak hCav1.2 Ca2+ current inhibition, Mean (hCav1.2; site s02_p2, corrected for rundown, 3.00E-07 mol/L): 34.4%
- Peak hCav1.2 Ca2+ current inhibition, Mean (hCav1.2; site s04_p3, 1.00E-08 mol/L): 12.6%
- Peak hCav1.2 Ca2+ current inhibition, Mean (hCav1.2; site s04_p3, 3.00E-07 mol/L): 17.5%
- Peak hCav1.2 Ca2+ current inhibition, Mean (hCav1.2; site s06_p4, 1.00E-08 mol/L): 5.9%
- Peak hCav1.2 Ca2+ current inhibition, Mean (hCav1.2; site s06_p4, 3.00E-07 mol/L): 13.9%
- Peak hCav1.2 Ca2+ current inhibition, Mean (hCav1.2; site s11_p1, 1.00E-08 mol/L): 13.2%
- Peak hCav1.2 Ca2+ current inhibition, Mean (hCav1.2; site s11_p1, 3.00E-07 mol/L): 21.4%
- Peak hCav1.2 Ca2+ current inhibition, Mean (hCav1.2; site s14_p1, 1.00E-08 mol/L): -0.1%
- Peak hCav1.2 Ca2+ current inhibition, Mean (hCav1.2; site s14_p1, 3.00E-07 mol/L): 8.2%
- nH, Hill slope (hCav1.2; site s16_p3): 0.51
- Peak hCav1.2 Ca2+ current inhibition, Mean (hCav1.2; site s16_p3, 1.00E-08 mol/L): 8.6%
- Peak hCav1.2 Ca2+ current inhibition, Mean (hCav1.2; site s16_p3, 3.00E-07 mol/L): 45.8%
- Peak hCav1.2 Ca2+ current inhibition, Mean (hCav1.2; site s18_p1, 1.00E-08 mol/L): 28.2%
- Peak hCav1.2 Ca2+ current inhibition, Mean (hCav1.2; site s18_p1, 3.00E-07 mol/L): 31.3%
- inhibition at 1e-08 mol/L (hERG; site_platform s07_p5): 0.5%
- inhibition at 4 min, 1e-08 mol/L (hERG; site_platform s10_p3): 1.5%
- inhibition at 7 min, 1e-08 mol/L (hERG; site_platform s11_p1): 12%
- inhibition at 7 min, 1e-08 mol/L (hERG; site_platform s14_p1): 41.9%
